Source: ChEMBL document CHEMBL1201862, “PubChem BioAssay data set” (2004)
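Results reflect a 48-hour exposure of cells in 96-well plates to compound at five concentrations. GI50 marks 50% less growth.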 Calls of active or inactive are those of the source. Cut-off read from the data, not from the text of the source: active = GI50 up to about 1.1 µM and inactive = higher.

What was measured:
Test in all cases: inhibition of tumour cell growth, NCI panel, 48 h
786-0 = system: 786-0
A549 = system: A549
CAKI-1 = system: CAKI-1
CCRF-CEM = system: CCRF-CEM
COLO 205 = system: COLO 205
DU-145 = system: DU-145
EKVX = system: EKVX
HCT-116 = system: HCT-116
HL-60 = system: HL-60
HOP-62 = system: HOP-62
HOP-92 = system: HOP-92
HT-29 = system: HT-29
IGROV-1 = system: IGROV-1
K562 = system: K562
KM12 = system: KM12
LOX IMVI = system: LOX IMVI
M14 = system: M14
MDA-MB-435 = system: MDA-MB-435
MDA-N = system: MDA-N
MOLT-4 = system: MOLT-4
NCI-H226 = system: NCI-H226
OVCAR-3 = system: OVCAR-3
OVCAR-4 = system: OVCAR-4
OVCAR-5 = system: OVCAR-5
OVCAR-8 = system: OVCAR-8
RPMI-8226 = system: RPMI-8226
RXF 393 = system: RXF 393
SF-295 = system: SF-295
SF-539 = system: SF-539
SK-MEL-28 = system: SK-MEL-28
SK-MEL-5 = system: SK-MEL-5
SK-OV-3 = system: SK-OV-3
SN12C = system: SN12C
SNB-19 = system: SNB-19
SNB-75 = system: SNB-75
SR = system: SR
SW-620 = system: SW-620
T47D = system: T47D
UO-31 = system: UO-31
A498 = system: A498
HCC 2998 = system: HCC 2998
MCF7 = system: MCF7
MDA-MB-231 = system: MDA-MB-231
Malme-3M = system: Malme-3M
NCI-H460 = system: NCI-H460
NCI/ADR-RES = system: NCI/ADR-RES
PC-3 = system: PC-3
SK-MEL-2 = system: SK-MEL-2
TK-10 = system: TK-10
UACC-257 = system: UACC-257
ACHN = system: ACHN
Hs-578T = system: Hs-578T
NCI-H522 = system: NCI-H522
SF-268 = system: SF-268
U-251 = system: U-251
HCT-15 = system: HCT-15
NCI-H23 = system: NCI-H23
UACC-62 = system: UACC-62

## O=C(O)CCC(=O)c1ccc(Cl)cc1
786-0
  GI50: > 100 µM (inactive)
A549
  GI50: > 100 µM (inactive)
CAKI-1
  GI50: > 100 µM (inactive)
CCRF-CEM
  GI50: > 100 µM (inactive)
COLO 205
  GI50: > 100 µM (inactive)
DU-145
  GI50: > 100 µM (inactive)
EKVX
  GI50: > 100 µM (inactive)
HCT-116
  GI50: > 100 µM (inactive)
HL-60
  GI50: > 100 µM (inactive)
HOP-62
  GI50: > 100 µM (inactive)
HOP-92
  GI50: > 100 µM (inactive)
HT-29
  GI50: > 100 µM (inactive)
IGROV-1
  GI50: > 100 µM (inactive)
K562
  GI50: > 100 µM (inactive)
KM12
  GI50: > 100 µM (inactive)
LOX IMVI
  GI50: > 100 µM (inactive)
M14
  GI50: > 100 µM (inactive)
MDA-MB-435
  GI50: > 100 µM (inactive)
MDA-N
  GI50: > 100 µM (inactive)
MOLT-4
  GI50: > 100 µM (inactive)
NCI-H226
  GI50: > 100 µM (inactive)
OVCAR-3
  GI50: > 100 µM (inactive)
OVCAR-4
  GI50: > 100 µM (inactive)
OVCAR-5
  GI50: > 100 µM (inactive)
OVCAR-8
  GI50: > 100 µM (inactive)
RPMI-8226
  GI50: > 100 µM (inactive)
RXF 393
  GI50: > 100 µM (inactive)
SF-295
  GI50: > 100 µM (inactive)
SF-539
  GI50: > 100 µM (inactive)
SK-MEL-28
  GI50: > 100 µM (inactive)
SK-MEL-5
  GI50: > 100 µM (inactive)
SK-OV-3
  GI50: > 100 µM (inactive)
SN12C
  GI50: > 100 µM (inactive)
SNB-19
  GI50: > 100 µM (inactive)
SNB-75
  GI50: > 100 µM (inactive)
SR
  GI50: > 100 µM (inactive)
SW-620
  GI50: > 100 µM (inactive)
T47D
  GI50: > 100 µM (inactive)
UO-31
  GI50: > 100 µM (inactive)

## NS(=O)(=O)c1ccc(/C=C/c2ccc(O)c(O)c2)cc1
786-0
  GI50: 34.7 µM (inactive)
A498
  GI50: 54.3 µM (inactive)
COLO 205
  GI50: 21.2 µM (inactive)
DU-145
  GI50: 68.7 µM (inactive)
EKVX
  GI50: 21.2 µM (inactive)
HCC 2998
  GI50: 18.7 µM (inactive)
HCT-116
  GI50: 25.5 µM (inactive)
HOP-62
  GI50: 47.2 µM (inactive)
M14
  GI50: 26.5 µM (inactive)
MCF7
  GI50: 20.8 µM (inactive)
MDA-MB-231
  GI50: 19.6 µM (inactive)
MDA-N
  GI50: 18.3 µM (inactive)
Malme-3M
  GI50: 35.3 µM (inactive)
NCI-H460
  GI50: 27.3 µM (inactive)
NCI/ADR-RES
  GI50: 23.1 µM (inactive)
OVCAR-3
  GI50: 31.6 µM (inactive)
OVCAR-5
  GI50: 31.6 µM (inactive)
PC-3
  GI50: 19.1 µM (inactive)
RXF 393
  GI50: 69.3 µM (inactive)
SF-295
  GI50: 29.8 µM (inactive)
SK-MEL-28
  GI50: 23.2 µM (inactive)
SK-MEL-2
  GI50: 22.5 µM (inactive)
SK-MEL-5
  GI50: 10.8 µM (inactive)
SK-OV-3
  GI50: 17.3 µM (inactive)
SN12C
  GI50: 18.7 µM (inactive)
SNB-19
  GI50: 34.4 µM (inactive)
SNB-75
  GI50: 20.4 µM (inactive)
SW-620
  GI50: 22 µM (inactive)
T47D
  GI50: 14.5 µM (inactive)
TK-10
  GI50: 60.7 µM (inactive)
UACC-257
  GI50: 61.5 µM (inactive)
UO-31
  GI50: 12.3 µM (inactive)

## O=C1C(=c2cc3c(c4ccccc24)=NC24CCCCC2C(c2ccccc2)C=C(c2ccccc2)N34)C(=O)c2ccccc21 (stereo not drawn)
786-0
  GI50: 48.6 µM (inactive)
A498
  GI50: > 100 µM (inactive)
A549
  GI50: 41 µM (inactive)
ACHN
  GI50: 54.3 µM (inactive)
CAKI-1
  GI50: 53 µM (inactive)
CCRF-CEM
  GI50: 15.6 µM (inactive)
COLO 205
  GI50: 33 µM (inactive)
DU-145
  GI50: 57.3 µM (inactive)
EKVX
  GI50: 12.7 µM (inactive)
HCT-116
  GI50: 36.2 µM (inactive)
HL-60
  GI50: 27.7 µM (inactive)
HOP-62
  GI50: 74 µM (inactive)
HOP-92
  GI50: 27.9 µM (inactive)
HT-29
  GI50: 53 µM (inactive)
Hs-578T
  GI50: 34 µM (inactive)
IGROV-1
  GI50: 3.08 µM (inactive)
K562
  GI50: 23 µM (inactive)
KM12
  GI50: 30.4 µM (inactive)
LOX IMVI
  GI50: 34.2 µM (inactive)
M14
  GI50: 44 µM (inactive)
MCF7
  GI50: 14.4 µM (inactive)
MDA-MB-231
  GI50: 15.4 µM (inactive)
MDA-MB-435
  GI50: 22 µM (inactive)
MDA-N
  GI50: 36.9 µM (inactive)
MOLT-4
  GI50: 16.6 µM (inactive)
Malme-3M
  GI50: 45.1 µM (inactive)
NCI-H226
  GI50: 44.3 µM (inactive)
NCI-H522
  GI50: 16.7 µM (inactive)
OVCAR-3
  GI50: 22 µM (inactive)
OVCAR-4
  GI50: 15.5 µM (inactive)
OVCAR-5
  GI50: > 100 µM (inactive)
OVCAR-8
  GI50: 50.4 µM (inactive)
PC-3
  GI50: 25.8 µM (inactive)
RPMI-8226
  GI50: 11.4 µM (inactive)
RXF 393
  GI50: 18.5 µM (inactive)
SF-268
  GI50: 30.3 µM (inactive)
SF-295
  GI50: > 100 µM (inactive)
SF-539
  GI50: 41.1 µM (inactive)
SK-MEL-28
  GI50: 47.2 µM (inactive)
SK-MEL-2
  GI50: 42.5 µM (inactive)
SK-MEL-5
  GI50: 26.4 µM (inactive)
SK-OV-3
  GI50: > 100 µM (inactive)
SN12C
  GI50: > 100 µM (inactive)
SNB-19
  GI50: 45.2 µM (inactive)
SNB-75
  GI50: 54 µM (inactive)
SR
  GI50: 26.4 µM (inactive)
SW-620
  GI50: 37.7 µM (inactive)
T47D
  GI50: 3.48 µM (inactive)
TK-10
  GI50: > 100 µM (inactive)
U-251
  GI50: 36.8 µM (inactive)
UACC-257
  GI50: > 100 µM (inactive)
UO-31
  GI50: 22.9 µM (inactive)

## C1=C(N2CCOCC2)/C(=C2\SC(=N/c3ccccc3)/C(=N\c3ccccc3)N2c2ccccc2)CC1
A498
  GI50: 94.4 µM (inactive)
CAKI-1
  GI50: 51.8 µM (inactive)
CCRF-CEM
  GI50: 19.7 µM (inactive)
COLO 205
  GI50: > 100 µM (inactive)
DU-145
  GI50: > 100 µM (inactive)
HCT-116
  GI50: > 100 µM (inactive)
HCT-15
  GI50: > 100 µM
HL-60
  GI50: > 10 µM (inactive)
HOP-62
  GI50: 28.9 µM (inactive)
HOP-92
  GI50: 34.8 µM (inactive)
HT-29
  GI50: > 100 µM (inactive)
Hs-578T
  GI50: 26.8 µM (inactive)
IGROV-1
  GI50: > 100 µM (inactive)
K562
  GI50: > 100 µM (inactive)
KM12
  GI50: > 100 µM (inactive)
M14
  GI50: 38.2 µM (inactive)
MDA-MB-231
  GI50: 61.5 µM (inactive)
MDA-MB-435
  GI50: > 100 µM (inactive)
MDA-N
  GI50: > 100 µM (inactive)
MOLT-4
  GI50: 20.9 µM (inactive)
Malme-3M
  GI50: > 100 µM (inactive)
NCI-H23
  GI50: > 100 µM (inactive)
NCI-H460
  GI50: > 100 µM (inactive)
NCI-H522
  GI50: 29 µM (inactive)
NCI/ADR-RES
  GI50: > 100 µM (inactive)
OVCAR-3
  GI50: 52.4 µM (inactive)
OVCAR-8
  GI50: 62.5 µM (inactive)
PC-3
  GI50: > 100 µM (inactive)
RPMI-8226
  GI50: > 100 µM (inactive)
SF-295
  GI50: 49.2 µM (inactive)
SK-MEL-28
  GI50: 75.2 µM (inactive)
SK-MEL-2
  GI50: 89.3 µM (inactive)
SK-MEL-5
  GI50: > 100 µM (inactive)
SK-OV-3
  GI50: 34.1 µM (inactive)
SN12C
  GI50: > 100 µM (inactive)
SNB-75
  GI50: 23.1 µM (inactive)
SR
  GI50: 67.5 µM (inactive)
T47D
  GI50: > 100 µM (inactive)
U-251
  GI50: 68.4 µM (inactive)
UACC-62
  GI50: 18.7 µM (inactive)
